Experimental data as given in patent publication US5506237A, “Bicyclic nitrogen compounds” (Adir et Compagnie, priority 1993, dated 1996).

What was measured:
[1] = molecular target: T1, prolyl-endopeptidase in rat cerebral cortex (Rattus norvegicus, UniProt O70196); assay: In vivo inhibition of prolyl-endopeptidase in rat cerebral cortex after IP administration; details: 1 mg/kg IP, 30 minutes before preparation of the tissue extract
T1 sequence (O70196 1-710): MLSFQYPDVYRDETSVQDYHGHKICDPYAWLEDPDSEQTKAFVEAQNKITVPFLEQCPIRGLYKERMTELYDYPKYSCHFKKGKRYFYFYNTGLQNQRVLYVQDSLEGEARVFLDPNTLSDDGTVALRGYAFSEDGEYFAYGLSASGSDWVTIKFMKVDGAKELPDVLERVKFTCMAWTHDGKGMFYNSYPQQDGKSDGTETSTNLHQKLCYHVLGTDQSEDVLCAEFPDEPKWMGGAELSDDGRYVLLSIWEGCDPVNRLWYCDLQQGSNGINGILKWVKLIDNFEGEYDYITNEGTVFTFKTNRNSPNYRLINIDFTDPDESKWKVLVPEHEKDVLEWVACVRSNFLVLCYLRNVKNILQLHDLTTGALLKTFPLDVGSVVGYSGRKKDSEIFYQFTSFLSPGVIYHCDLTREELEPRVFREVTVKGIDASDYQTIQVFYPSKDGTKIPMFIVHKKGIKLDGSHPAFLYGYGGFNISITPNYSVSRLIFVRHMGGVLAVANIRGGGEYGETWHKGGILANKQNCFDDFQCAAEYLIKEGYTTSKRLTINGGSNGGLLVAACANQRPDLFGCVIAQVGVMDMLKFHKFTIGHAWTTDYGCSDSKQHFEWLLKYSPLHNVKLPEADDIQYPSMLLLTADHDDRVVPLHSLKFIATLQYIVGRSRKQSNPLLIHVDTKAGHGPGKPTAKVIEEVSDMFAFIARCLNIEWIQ

Prolyl-endopeptidase = assay: biochemical
Prolyl-endopeptidase, sequence (P27028 21-705): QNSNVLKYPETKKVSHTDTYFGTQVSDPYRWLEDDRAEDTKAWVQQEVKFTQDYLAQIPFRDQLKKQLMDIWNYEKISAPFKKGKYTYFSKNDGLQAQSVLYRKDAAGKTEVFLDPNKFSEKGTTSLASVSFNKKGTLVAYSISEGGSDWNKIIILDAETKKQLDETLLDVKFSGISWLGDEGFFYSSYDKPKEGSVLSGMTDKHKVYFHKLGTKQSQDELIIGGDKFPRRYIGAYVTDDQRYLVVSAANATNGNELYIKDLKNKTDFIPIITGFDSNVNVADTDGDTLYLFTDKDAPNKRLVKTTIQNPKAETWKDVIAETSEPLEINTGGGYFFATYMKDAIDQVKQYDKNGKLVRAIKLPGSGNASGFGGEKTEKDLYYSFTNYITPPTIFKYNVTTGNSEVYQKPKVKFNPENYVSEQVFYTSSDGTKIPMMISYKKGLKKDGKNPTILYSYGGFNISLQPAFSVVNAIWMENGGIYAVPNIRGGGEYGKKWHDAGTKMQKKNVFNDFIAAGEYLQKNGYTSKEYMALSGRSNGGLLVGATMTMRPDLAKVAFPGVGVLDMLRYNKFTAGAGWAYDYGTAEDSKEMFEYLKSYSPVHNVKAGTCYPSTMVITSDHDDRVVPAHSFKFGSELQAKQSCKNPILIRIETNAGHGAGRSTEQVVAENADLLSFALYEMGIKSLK

[2] = molecular target: T1, prolyl-endopeptidase in rat cerebral cortex; assay: Oral bioavailability estimated from inhibiting effect after oral versus IP administration; type: in vivo; details: inhibiting effect (%) after oral divided by that after IP administration, 30 or 60 minutes
[3] = molecular target: T1, prolyl-endopeptidase in rat cerebral cortex; assay: Duration of action with respect to in vivo inhibition of prolyl-endopeptidase in rat cerebral cortex; details: IP
[4] = molecular target: T1, prolyl-endopeptidase in rat cerebral cortex; assay: In vitro inhibition of prolyl-endopeptidase in rat cerebral cortex extract (substrate TRH-pNitroaniline); type: biochemical; details: 37° C.

SMILES | inhibition at 1 mg/kg [1] | IC50 (Prolyl-endopeptidase) | other results
O=C([C@@H]1C[C@@H]2CCCC[C@@H]2N1C(=O)[C@@H]1C[C@H]1c1ccc(F)cc1)N1CCCC1 [Example 1] | 54% | 14 nM | OBI (oral bioavailability index) ([2]; 1 mg/kg): 0.90; t1/2 (time for which the inhibiting effect is equal to 50 % of the maximum effect measured at 30 minutes) ([3]; 1 mg/kg): 7 h
O=C([C@@H]1C2CCC(CC2)N1C(=O)[C@@H]1C[C@H]1c1ccc(F)cc1)N1CCCC1 [Example 2, (3S)-2-{(1R,2R)-[2-(4-Fluorophenyl)-1-cyclopropyl]carbonyl}-3-[(pyrrolidin-1-yl)carbonyl]-2-azabicyclo[2.2.2]octane] | 42% | 40 nM | t1/2 (time for which the inhibiting effect is equal to 50 % of the maximum effect measured at 30 minutes) ([3]; 1 mg/kg): 7 h
O=C([C@@H]1C[C@@H]2CCCC[C@@H]2N1C(=O)[C@@H]1C[C@H]1c1cccs1)N1CCCC1 [Example 3, (2S,3aS,7aS)-1-{(1R,2R)-[2-(2-Thienyl)-1-cyclopropyl]carbonyl}-2-[(pyrrolidin-1-yl)carbonyl]perhydroindole] | 59% | 14 nM | IC50 [4]: 1.4 nM
O=C([C@@H]1C[C@@H]2CCCC[C@@H]2N1C(=O)[C@@H]1C[C@H]1c1cccc(C(F)(F)F)c1)N1CCCC1 [Example 5, (2S,3aS,7aS)-1-{(1R,2R)-[2-(3-Trifluoromethylphenyl)-1cyclopropyl]carbonyl}-2-[(pyrrolidin-1-yl)carbonyl]perhydroindole] | 58% |  | IC50 [4]: 1 nM
O=C[C@@H]1CCCN1C(=O)CCC(=O)NCc1ccc(Cl)cc1 [ONO, (S)-1-[N-4-chlorobenzylsuccinamoyl] pyrrolidine-2-carbaldehyde, reference compound] |  |  | t1/2 (time for which the inhibiting effect is equal to 50 % of the maximum effect measured at 30 minutes) ([3]; 30 mg/kg): 1 h
O=C([C@@H]1CSCN1C(=O)CCCc1ccccc1)N1CCCC1 [Zeria, N-(4-phenylbutanoyl)-L-thiaprolylpyrrolidineimide, reference compound] |  |  | OBI (oral bioavailability index) ([2]; 30 mg/kg): 0.30; t1/2 (time for which the inhibiting effect is equal to 50 % of the maximum effect measured at 30 minutes) ([3]; 30 mg/kg): 1 h

Second part, led by results:

inhibition at 1 mg/kg [1] | IC50 (Prolyl-endopeptidase) | SMILES | other results
41% |  | O=C([C@@H]1C[C@@H]2CCCC[C@@H]2N1C(=O)C1CC1Cc1ccccc1)N1CCCC1 (single isomer, unassigned) [Example 14] | 
49% | 3 nM | O=C([C@@H]1C2CCC(CC2)N1C(=O)[C@@H]1C[C@H]1c1cccc(C(F)(F)F)c1)N1CCCC1 [Example 6, (3S)-2-{(1R,2R)-[2-(3-Trifluoromethylphenyl)-1-cyclopropyl]carbonyl}-3-[(pyrrolidin-1-yl)carbonyl]-2-azabicyclo[2.2.2]octane] | 
